Data as given in BindingDB's records for doi:10.1021/jm00095a009 (Dupont Pharmaceuticals, 1992).

What follows are compounds tested against Phospholipase A2 (Crotalus adamanteus) (assay: Inhibitory activity against phospholipase A2 of Croatalus adamanteus).
For `OC(Cn1ccnc1)(c1ccc(F)cc1)c1ccc(-c2ccncc2)cc1` (stereo not drawn), the IC50 was over 1000 µM.
For `Cc1ccc(C(O)(Cn2ccnc2)c2ccc(-c3ccncc3)cc2)cc1` (stereo not drawn), the IC50 was over 1000 µM.
`Oc1c(Cc2ccccc2)ccc2ccccc12` was tested, and the IC50 was over 1000 µM.
